According to publication PMC6934184, “Selective DNA-PKcs inhibition extends the therapeutic index of localized radiotherapy and chemotherapy” (The Journal of Clinical Investigation, 2019):

Biological target: T1, MARK1 (MARK) (Homo sapiens, UniProt Q9P0L2)
T1 construct: purchased Thermo Fisher Scientific (Life Technologies) SelectScreen
Assay: SelectScreen Z'LYTE
Type: biochemical
Summary of the method: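 SelectScreen broad panel; activity (Z'LYTE, Adapta) plus binding formats. ATP: Km app for CSF1R Z'LYTE; 10 for CAMK1 Adapta. Readout = % per kinase.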

T1 sequence (Q9P0L2 whole entry): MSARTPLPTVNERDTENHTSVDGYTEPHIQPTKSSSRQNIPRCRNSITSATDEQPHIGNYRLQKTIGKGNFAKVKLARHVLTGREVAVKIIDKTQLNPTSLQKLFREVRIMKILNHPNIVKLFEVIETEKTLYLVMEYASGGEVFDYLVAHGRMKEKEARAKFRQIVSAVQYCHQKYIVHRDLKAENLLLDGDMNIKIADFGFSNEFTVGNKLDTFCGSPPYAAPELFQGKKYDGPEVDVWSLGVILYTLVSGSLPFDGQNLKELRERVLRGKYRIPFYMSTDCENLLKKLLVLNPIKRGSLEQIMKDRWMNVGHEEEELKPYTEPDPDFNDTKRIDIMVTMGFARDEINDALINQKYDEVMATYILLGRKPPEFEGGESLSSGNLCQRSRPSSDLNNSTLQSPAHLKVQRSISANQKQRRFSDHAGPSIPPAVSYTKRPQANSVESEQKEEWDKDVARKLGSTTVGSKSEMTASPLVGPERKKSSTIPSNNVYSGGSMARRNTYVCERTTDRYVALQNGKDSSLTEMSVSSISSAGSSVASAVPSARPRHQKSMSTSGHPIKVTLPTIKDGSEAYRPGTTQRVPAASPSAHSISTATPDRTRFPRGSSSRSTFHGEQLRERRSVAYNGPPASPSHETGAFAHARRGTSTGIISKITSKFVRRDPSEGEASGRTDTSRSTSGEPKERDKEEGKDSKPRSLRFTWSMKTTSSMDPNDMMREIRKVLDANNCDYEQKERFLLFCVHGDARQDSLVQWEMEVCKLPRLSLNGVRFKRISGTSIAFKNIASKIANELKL

SMILES: CN(C(=O)CN1CCOCC1)c1ccc2sc3c(-c4cccc5c(=O)cc(N6CC7CCC(C6)O7)oc45)cccc3c2c1 [NU5455]
- inhibition at 1 µM: 5.1%
